These results are taken from patent US10065948B2, “Histone deacetylase inhibitors and compositions and methods of use thereof” (CHDI Foundation, Inc., priority 2014, dated 2018).

Experiment [1] concerns the target Histone Deacetylase 4 (HDAC4) catalytic domain (Homo sapiens (Human), UniProt P56524). In words: Biochemical HDAC inhibition assay, fluorogenic substrate Boc-Lys(Tfa)-AMC. In outline: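 Human HDAC4 catalytic domain (aa 648-1032, C-terminal His6) at 0.2 μg/mL working solution was tested against a 16-point compound dilution series in Tris buffer pH 8.0 for 15 min at 37 °C. Substrate Boc-Lys(Tfa)-AMC was prepared at 50 μM (5×). The reaction was stopped with trypsin plus reference inhibitor for 1 h at 37 °C, and AMC fluorescence was read at Ex 355/Em 460 nm.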

In experiment [2] the test system is cellular histone deacetylase enzymatic activity in Jurkat E6-1 cells. In words: Inhibition of cellular HDAC activity, Boc-Lys(Tfa)-AMC substrate (Cell Lys-TFA). Type of experiment: cell-based. In outline: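 Jurkat E6-1 cells (75,000/well) were treated with a 16-point compound dilution for 2 h at 37 °C, then exposed to Boc-Lys(Tfa)-AMC for 3 h. Lysis buffer containing trypsin was added overnight (15-16 h), and AMC fluorescence was read at Ex 355/Em 460 nm.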

Experiment [3] deals with cellular histone deacetylase activity (Lys-Ac). In words: Inhibition of cellular HDAC activity (Cell Lys-Ac). Type of experiment: cell-based. Conditions: Lys-Ac substrate.
The mark [4] stands for this setting: Homo sapiens, Jurkat E6.1, Lys-TFA substrate.

In general, pIC50 refers to −log10 of the IC50, conventionally taken in molar units.

Each structure is given as a SMILES string. pIC50: −log10 of the molar value.

Chain of Histone Deacetylase 4 (HDAC4) catalytic domain (P56524 648-1032): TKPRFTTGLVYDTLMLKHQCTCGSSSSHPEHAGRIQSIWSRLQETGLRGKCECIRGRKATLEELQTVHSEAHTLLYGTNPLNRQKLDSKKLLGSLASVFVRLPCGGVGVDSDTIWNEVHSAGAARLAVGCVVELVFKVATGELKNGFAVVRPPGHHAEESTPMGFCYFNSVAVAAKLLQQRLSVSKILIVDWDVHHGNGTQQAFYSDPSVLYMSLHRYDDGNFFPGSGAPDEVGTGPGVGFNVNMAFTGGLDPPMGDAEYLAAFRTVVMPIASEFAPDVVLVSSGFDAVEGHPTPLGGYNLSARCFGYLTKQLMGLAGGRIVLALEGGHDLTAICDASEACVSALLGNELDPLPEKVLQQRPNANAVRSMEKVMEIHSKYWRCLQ

For `Cc1c(F)cccc1[C@]1(C(=O)NO)CCc2nc(-c3ccc(F)cc3)sc21` [Example 78, (S)-6-(3-Fluoro-2-methylphenyl)-2-(4-fluorophenyl)-N-hydroxy-5,6-dihydro-4H-cyclopenta[d]thiazole-6-carboxamide], the results for the pIC50 in experiment [1], in experiment [2] (setting [4]) and in experiment [3] were 6.92, 6.30 and < 4.30, respectively.
As for `Cc1c(F)cccc1[C@]1(C(=O)NO)Cc2cnc(-c3ccccc3Cl)nc2C1` [Example 48, (S)-2-(2-Chlorophenyl)-6-(3-fluoro-2-methylphenyl)-N-hydroxy-6,7-dihydro-5H-cyclopenta[d]pyrimidine-6-carboxamide], the pIC50 is 6.81 in experiment [1], 7.22 in experiment [2] (setting [4]) and < 4.30 in experiment [3].
As to `Cc1cccc(F)c1-n1ncc2c1C[C@](C(=O)NO)(c1cccc(F)c1C)C2` [Example 15, (S)-5-(3-Fluoro-2-methylphenyl)-1-(2-fluoro-6-methylphenyl)-N-hydroxy-1,4,5,6-tetrahydrocyclopenta[c]pyrazole-5-carboxamide], the pIC50 was 7.72 in experiment [1], 7.49 in experiment [2] (setting [4]) and < 4.30 in experiment [3].
As for `O=C(NO)C1(c2ccccc2)CCc2cn(CC(F)(F)F)nc2CC1` (stereo not drawn) [Example 86, N-Hydroxy-6-phenyl-2-(2,2,2-trifluoroethyl)-2,4,5,6,7,8-hexahydrocyclohepta[c]pyrazole-6-carboxamide], the negative-log IC50 (pIC50) was 5.09 in experiment [1], 4.33 in experiment [2] (setting [4]) and < 4.30 in experiment [3].
For `Cc1cnccc1-n1cc2c(n1)C[C@](C(=O)NO)(c1cccc(F)c1C)C2` [Example 27, (S)-5-(3-fluoro-2-methylphenyl)-N-hydroxy-2-(3-methylpyridin-4-yl)-2,4,5,6-tetrahydrocyclopenta[c]pyrazole-5-carboxamide], the results for the pIC50 in experiment [1], in experiment [2] (setting [4]) and in experiment [3] were 7.28, 6.94 and < 4.30, respectively.
Consider `Cc1c(F)cccc1[C@]1(C(=O)NO)Cc2cnn(C3CC3)c2C1` [Example 58, (S)-1-Cyclopropyl-5-(3-fluoro-2-methylphenyl)-N-hydroxy-1,4,5,6-tetrahydrocyclopenta[c]pyrazole-5-carboxamide], for which the negative logarithm of the IC50 (pIC50) in experiment [1] is 7.32; in experiment [2] (setting [4]), 6.90; in experiment [3], < 4.30.
Take `Cc1c(F)cccc1C1(C(=O)NO)CCc2cn(CC(F)(F)F)nc2CC1` (single isomer, unassigned) [Example 85, E2-(abs)-6-(3-fluoro-2-methylphenyl)-N-hydroxy-2-(2,2,2-trifluoroethyl)-2,4,5,6,7,8-hexahydrocyclohepta[c]pyrazole-6-carboxamide]: the pIC50 in experiment [1] is 6.10; in experiment [2] (Lys-TFA substrate), 5.74; in experiment [3], < 4.30.
Regarding `Cc1c(F)cccc1[C@]1(C(=O)NO)CCc2nn(Cc3ccccc3F)cc21` [Example 95, (R)-4-(3-fluoro-2-methylphenyl)-2-(2-fluorobenzyl)-N-hydroxy-2,4,5,6-tetrahydrocyclopenta[c]pyrazole-4-carboxamide], the pIC50 in experiment [1] was 6.15; in experiment [2] (setting [4]), 5.53; in experiment [3] it was < 4.30.
Consider `Cc1c(F)cccc1[C@]1(C(=O)NO)Cc2cnn(-c3c(F)cccc3Cl)c2C1` [Example 14, (S)-1-(2-Chloro-6-fluorophenyl)-5-(3-fluoro-2-methylphenyl)-N-hydroxy-1,4,5,6-tetrahydrocyclopenta[c]pyrazole-5-carboxamide], for which the pIC50 in experiment [1] was 7.82; in experiment [2] (setting [4]) it was 7.96; in experiment [3], < 4.30.
For the compound `Cc1c(F)cccc1C1(C(=O)NO)CCc2c(cnn2-c2ccccc2)C1` (single isomer, unassigned) [Example 32, E2-(abs)-5-(3-fluoro-2-methylphenyl)-N-hydroxy-1-phenyl-4,5,6,7-tetrahydro-1H-indazole-5-carboxamide], the pIC50 in experiment [1] is 4.76; in experiment [2] (Lys-TFA substrate) it was 5.54; in experiment [3], < 4.30.
`Cc1c(F)cccc1[C@]1(C(=O)NO)Cc2cnn(-c3ccc(F)cn3)c2C1` [Example 16, (S)-5-(3-Fluoro-2-methylphenyl)-1-(5-fluoropyridin-2-yl)-N-hydroxy-1,4,5,6-tetrahydrocyclopenta[c]pyrazole-5-carboxamide]: the negative-log IC50 (pIC50) is 7.51 in experiment [1], 7.16 in experiment [2] (setting [4]) and < 4.30 in experiment [3].
As for `Cc1c(F)cccc1[C@@]1(C(=O)NO)Cc2nc(-c3ccc(F)cn3)sc2C1` [Example 96, (R)-5-(3-Fluoro-2-methylphenyl)-N-hydroxy-2-(5-fluoropyridin-2-yl)-5,6-dihydro-4H-cyclopenta[d]thiazole-5-carboxamide], the results for the pIC50 in experiment [1], in experiment [2] (setting [4]) and in experiment [3] were 7.29, 7.22 and < 4.30, respectively.
As to `COc1ccc(-c2nc3c(s2)C[C@@](C(=O)NO)(c2cccc(F)c2C)C3)nc1` [Example 71, (R)-5-(3-Fluoro-2-methylphenyl)-N-hydroxy-2-(5-methoxypyridin-2-yl)-5,6-dihydro-4H-cyclopenta[d]thiazole-5-carboxamide], the pIC50 in experiment [1] is 7.02; in experiment [2] (setting [4]), 7.25; in experiment [3], < 4.30.
Consider `Cc1c(F)cccc1C1(C(=O)NO)CCc2ncsc2C1` (stereo not drawn) [Example 44, 6-(3-Fluoro-2-methylphenyl)-N-hydroxy-4,5,6,7-tetrahydrobenzo[d]thiazole-6-carboxamide], for which the pIC50 in experiment [1] is 6.00; in experiment [2] (setting [4]), 5.82; in experiment [3] it was < 4.30.
Take `Cc1c(F)cccc1C1(C(=O)NO)CCc2nc(-c3ccccc3)ncc2C1` (stereo not drawn) [Example 47, 6-(3-Fluoro-2-methylphenyl)-N-hydroxy-2-phenyl-5,6,7,8-tetrahydroquinazoline-6-carboxamide]: the pIC50 is 5.49 in experiment [1], 5.96 in experiment [2] (setting [4]) and < 4.30 in experiment [3].
In the case of `Cc1c(F)cccc1[C@]1(C(=O)NO)Cc2nc(-c3ccnn3C)sc2C1` [Example 68, (S)-5-(3-Fluoro-2-methylphenyl)-N-hydroxy-2-(1-methyl-1H-pyrazol-5-yl)-5,6-dihydro-4H-cyclopenta[d]thiazole-5-carboxamide], the values for the negative logarithm of the IC50 (pIC50) in experiment [1], in experiment [2] (setting [4]) and in experiment [3] were 6.62, 6.92 and < 4.30, respectively.
In the case of `Cc1c(F)cccc1[C@]1(C(=O)NO)Cc2cnn(-c3ccc(F)cc3F)c2C1` [Example 17, (S)-1-(2,4-Difluorophenyl)-5-(3-fluoro-2-methylphenyl)-N-hydroxy-1,4,5,6-tetrahydrocyclopenta[c]pyrazole-5-carboxamide], the negative logarithm of the IC50 (pIC50) in experiment [1] is 7.54; in experiment [2] (setting [4]), 7.41; in experiment [3], < 4.30.
As to `Cc1c(F)cccc1[C@]1(C(=O)NO)Cc2cnn(-c3cccc(Cl)c3)c2C1` [Example 4, (S)-1-(3-Chlorophenyl)-5-(3-fluoro-2-methylphenyl)-N-hydroxy-1,4,5,6-tetrahydrocyclopenta[c]pyrazole-5-carboxamide], the results for the pIC50 in experiment [1], in experiment [2] (setting [4]) and in experiment [3] were 7.21, 7.14 and < 4.30, respectively.
On the same counts, the results for `Cc1c(F)cccc1[C@]1(C(=O)NO)CCc2c1cnn2C1CC1` [Example 59, (R)-1-cyclopropyl-4-(3-fluoro-2-methylphenyl)-N-hydroxy-1,4,5,6-tetrahydrocyclopenta[c]pyrazole-4-carboxamide] are 7.00, 6.14 and < 4.30.
